Experimental data from ChEMBL document CHEMBL2177093, “The design and identification of brain penetrant inhibitors of phosphoinositide 3-kinase α” (J Med Chem, 2012).
Active and inactive are the calls of the source. The rule behind the calls is not given here.

Experiments:
[1] = Ratio of drug level in brain to plasma in CD-1 mouse at 20 mg/kg, po measured at 1 hr; format: ADME, organism-based; parameters: dose 20 mg/kg, route oral; conditions: read-out: BPR
[2] = Clearance in rat; format: ADME, organism-based; conditions: in vivo
in vitro = conditions: human, liver microsomes
[3] = molecular target: Serine/threonine-protein kinase mTOR (Homo sapiens, UniProt P42345); experiment: Inhibition of human recombinant mTOR (1360 to 2549 amino acids) assessed as reduction in phosphorylation of (GFP)-4-EBP1 after 30 mins by FRET assay; conditions: read-out: Ki(app)
[4] = Clearance in po dosed CD-1 mouse; format: ADME, organism-based; conditions: in vivo
[5] = Half life in po dosed CD-1 mouse; format: ADME, organism-based; conditions: in vivo
[6] = Oral bioavailability in CD-1 mouse; format: ADME, organism-based; conditions: in vivo
[7] = Plasma protein binding in CD-1 mouse; format: ADME, cell-free; conditions: read-out: PPB (converted)
[8] = Ratio of drug level in brain to plasma in CD-1 mouse at 25 mg/kg, po at 1 hr; format: ADME, organism-based; parameters: dose 25 mg/kg, route oral; conditions: read-out: BPR
[9] = Ratio of drug level in brain to plasma in CD-1 mouse at 25 mg/kg, po at 6 hrs; format: ADME, organism-based; parameters: dose 25 mg/kg, route oral; conditions: read-out: BPR
mouse Bcrp1 = experiment: in vitro; conditions: dog
[10] = Drug uptake in NCr nude mouse brain xenografted with PTEN deficient human U87MG cells at 40 mg/kg after 1 hr; format: ADME, organism-based, U-87MG ATCC; parameters: dose 40 mg/kg; conditions: read-out: Drug uptake
[11] = Drug uptake in healthy mouse brain at 50 mg/kg after 1 hr; format: ADME, organism-based; parameters: dose 50 mg/kg; conditions: read-out: Drug uptake
[12] = molecular target: Phosphatidylinositol 4-phosphate 3-kinase C2 domain-containing subunit beta (Homo sapiens) (UniProt O00750); experiment: Inhibition of PI3KC2beta at 1 uM
Phosphatidylinositol 4-phosphate 3-kinase C2 domain-containing subunit beta (Homo sapiens), sequence (O00750 whole entry, the tested form may be a part): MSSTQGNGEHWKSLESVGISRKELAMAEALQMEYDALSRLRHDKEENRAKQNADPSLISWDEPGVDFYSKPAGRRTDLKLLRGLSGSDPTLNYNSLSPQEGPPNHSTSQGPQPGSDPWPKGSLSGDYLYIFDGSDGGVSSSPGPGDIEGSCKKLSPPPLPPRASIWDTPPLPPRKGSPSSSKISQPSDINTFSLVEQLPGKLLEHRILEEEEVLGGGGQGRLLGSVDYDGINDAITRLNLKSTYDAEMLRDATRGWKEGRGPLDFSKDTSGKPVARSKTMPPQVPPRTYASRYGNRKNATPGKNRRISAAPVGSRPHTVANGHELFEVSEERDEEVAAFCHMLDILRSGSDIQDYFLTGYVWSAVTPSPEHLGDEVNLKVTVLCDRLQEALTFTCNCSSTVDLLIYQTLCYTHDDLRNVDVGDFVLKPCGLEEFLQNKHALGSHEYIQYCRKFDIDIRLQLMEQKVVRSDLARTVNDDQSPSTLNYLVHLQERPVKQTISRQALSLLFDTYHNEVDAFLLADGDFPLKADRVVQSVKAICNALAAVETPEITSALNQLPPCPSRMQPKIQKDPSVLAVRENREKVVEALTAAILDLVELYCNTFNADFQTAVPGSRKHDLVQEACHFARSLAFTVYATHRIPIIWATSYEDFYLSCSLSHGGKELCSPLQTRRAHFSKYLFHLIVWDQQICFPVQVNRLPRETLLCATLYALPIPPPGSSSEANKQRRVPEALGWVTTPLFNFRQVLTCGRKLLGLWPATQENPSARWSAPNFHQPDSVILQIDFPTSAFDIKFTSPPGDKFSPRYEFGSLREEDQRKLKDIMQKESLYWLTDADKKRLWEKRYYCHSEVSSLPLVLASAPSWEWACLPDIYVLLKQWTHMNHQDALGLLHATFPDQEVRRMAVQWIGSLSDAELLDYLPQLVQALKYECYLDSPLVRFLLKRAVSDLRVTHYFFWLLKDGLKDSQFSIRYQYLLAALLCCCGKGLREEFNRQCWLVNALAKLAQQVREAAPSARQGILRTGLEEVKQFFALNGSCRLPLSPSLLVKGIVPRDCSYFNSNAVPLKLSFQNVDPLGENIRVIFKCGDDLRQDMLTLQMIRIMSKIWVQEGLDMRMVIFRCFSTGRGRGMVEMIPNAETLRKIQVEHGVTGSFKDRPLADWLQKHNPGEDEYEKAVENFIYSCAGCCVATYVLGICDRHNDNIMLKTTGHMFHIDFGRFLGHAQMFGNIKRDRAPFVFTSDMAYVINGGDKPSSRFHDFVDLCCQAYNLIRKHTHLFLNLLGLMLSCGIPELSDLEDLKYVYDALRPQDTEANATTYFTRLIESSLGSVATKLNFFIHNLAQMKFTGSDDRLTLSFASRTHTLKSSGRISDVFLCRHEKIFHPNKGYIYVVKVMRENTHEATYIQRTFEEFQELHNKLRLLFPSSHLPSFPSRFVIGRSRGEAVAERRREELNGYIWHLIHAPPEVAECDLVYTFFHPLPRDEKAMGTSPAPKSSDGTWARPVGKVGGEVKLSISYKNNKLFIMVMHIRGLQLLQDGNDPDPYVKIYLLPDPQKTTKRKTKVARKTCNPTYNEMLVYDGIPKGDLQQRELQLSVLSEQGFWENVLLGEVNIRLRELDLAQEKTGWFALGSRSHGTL

U-87MG ATCC = experiment: Antitumor activity against PTEN deficient human U87MG cells xenografted in NCr nude mouse assessed as inhibition of tumor growth at 3 to 14 mg/kg, po qd for 24 days; format: functional, organism-based
[13] = Drug level in CD-1 mouse brain at 50 mg/kg, po administered as single dose measured after 6 hrs post dose; format: ADME, organism-based; parameters: dose 50 mg/kg, route oral; conditions: read-out: Drug uptake
[14] = Drug level in CD-1 mouse brain at 50 mg/kg, po administered as single dose measured after 1 hr post dose; format: ADME, organism-based; parameters: dose 50 mg/kg, route oral; conditions: read-out: Drug uptake
[15] = Ratio of drug level in brain to plasma in CD-1 mouse at 50 mg/kg, po at 1 hr; format: ADME, organism-based; parameters: dose 50 mg/kg, route oral; conditions: read-out: BPR
[16] = Ratio of drug level in brain to plasma in CD-1 mouse at 50 mg/kg, po at 6 hrs; format: ADME, organism-based; parameters: dose 50 mg/kg, route oral; conditions: read-out: BPR
[17] = Cytotoxicity against human A172 cells incubated for 4 days; format: functional, cell-based; conditions: A 172, 96 h
[18] = Cytotoxicity against human Hs683 cells incubated for 4 days; format: functional, cell-based; conditions: Hs 683, 96 h
[19] = Cytotoxicity against human LN229 cells incubated for 4 days; format: functional, cell-based; conditions: LN-229, 96 h
M059J = experiment: Cytotoxicity against human M059J cells incubated for 4 days; format: functional, cell-based; conditions: 96 h
SF-539 = experiment: Cytotoxicity against human SF539 cells incubated for 4 days; format: functional, cell-based; conditions: SF-539, 96 h
[20] = Cytotoxicity against human U87MG cells incubated for 4 days; format: functional, cell-based, U-87MG ATCC; conditions: U-87 MG, 96 h
SF-268 = experiment: Cytotoxicity against human SF268 cells incubated for 4 days; format: functional, cell-based; conditions: SF-268, 96 h
Mus musculus [21] = experiment: Inhibition of PI3K signaling in CD-1 mouse assessed as reduction in pAKT level at 50 mg/kg, po administered as single dose measured after 1 hr post dose by immunoblotting method; format: functional; conditions: CD-1, 1 h
Mus musculus [22] = experiment: Inhibition of PI3K signaling in CD-1 mouse assessed as reduction in pAKT level at 50 mg/kg, po administered as single dose measured after 6 hrs post dose by immunoblotting method; format: functional; conditions: CD-1, 6 h
[23] = Toxicity in PTEN deficient human U87MG cells xenografted in NCr nude mouse at dosed orally once daily for 24 days; format: organism-based, U-87MG ATCC; conditions: in vivo, po
Mus musculus [24] = experiment: Toxicity in PTEN deficient human U87MG cells xenografted in NCr nude mouse assessed as loss in body weight at 30 mg/kg, po qd for 24 days; format: organism-based, U-87MG ATCC; parameters: dose 30 mg/kg, route oral; conditions: in vivo, 576 h
[25] = Antitumor activity in PTEN deficient human U87MG cells xenografted in NCr nude mouse assessed as loss in body weight at 40 mg/kg, po after 24 days; format: functional, U-87MG ATCC
Mus musculus [26] = experiment: Toxicity in PTEN deficient human U87MG cells xenografted in NCr nude mouse assessed as loss in body weight at 50 mg/kg, po qd for 24 days; format: organism-based, U-87MG ATCC; parameters: dose 50 mg/kg, route oral; conditions: in vivo, 576 h
Mus musculus [27] = organism: Mus musculus; conditions: NCr, U-87MG ATCC, 10 mg/kg
Mus musculus [28] = organism: Mus musculus; conditions: NCr, U-87MG ATCC, 40 mg/kg
Mus musculus [29] = organism: Mus musculus; conditions: NCr, U-87MG ATCC, 3 mg/kg
Mus musculus [30] = organism: Mus musculus; conditions: NCr, U-87MG ATCC, 10 mg/kg; remark: listed apart in the source
Mus musculus [31] = organism: Mus musculus; conditions: NCr, U-87MG ATCC, 40 mg/kg; remark: listed apart in the source
Mus musculus [32] = organism: Mus musculus; conditions: NCr, U-87MG ATCC, 3 mg/kg; remark: listed apart in the source
[33] = Protein binding in CD-1 mouse plasma at 25 mg/kg, po administered as single dose; format: ADME, organism-based; parameters: dose 25 mg/kg, route oral; conditions: read-out: PPB (converted)
[34] = Protein binding in CD-1 mouse brain at 25 mg/kg, po administered as single dose; format: ADME, organism-based; parameters: dose 25 mg/kg, route oral; conditions: read-out: PB (converted)
[35] = Ratio of drug level in brain to plasma in CD-1 mouse at 15 mg/kg, po at 1 hr; format: ADME, organism-based; parameters: dose 15 mg/kg, route oral; conditions: read-out: BPR
[36] = Ratio of drug level in brain to plasma in CD-1 mouse at 15 mg/kg, po at 6 hrs; format: ADME, organism-based; parameters: dose 15 mg/kg, route oral; conditions: read-out: BPR
[37] = Drug level in CD-1 mouse brain at 25 mg/kg, po administered as single dose measured after 6 hrs post dose; format: ADME, organism-based; parameters: dose 25 mg/kg, route oral; conditions: read-out: Drug uptake
[38] = Drug level in CD-1 mouse brain at 25 mg/kg, po administered as single dose measured after 1 hr post dose; format: ADME, organism-based; parameters: dose 25 mg/kg, route oral; conditions: read-out: Drug uptake
Mus musculus [39] = experiment: Inhibition of PI3K signaling in CD-1 mouse assessed as reduction in pAKT level at 25 mg/kg, po administered as single dose measured after 1 hr post dose by immunoblotting method; format: functional; conditions: CD-1, 1 h
Mus musculus [40] = experiment: Toxicity in PTEN deficient human U87MG cells xenografted in NCr nude mouse assessed as loss in body weight at 6 mg/kg, po qd for 24 days; format: organism-based, U-87MG ATCC; parameters: dose 6 mg/kg, route oral; conditions: in vivo, 576 h
Mus musculus [41] = experiment: Toxicity in PTEN deficient human U87MG cells xenografted in NCr nude mouse assessed as loss in body weight at 14 mg/kg, po qd for 24 days; format: organism-based, U-87MG ATCC; parameters: dose 14 mg/kg, route oral; conditions: in vivo, 576 h
Mus musculus [42] = experiment: Toxicity in PTEN deficient human U87MG cells xenografted in NCr nude mouse assessed as loss in body weight at 18 mg/kg, po qd for 24 days; format: organism-based, U-87MG ATCC; parameters: dose 18 mg/kg, route oral; conditions: in vivo, 576 h
[43] = molecular target: Phosphatidylinositol 4,5-bisphosphate 3-kinase catalytic subunit alpha isoform (Homo sapiens, UniProt P42336); experiment: Inhibition of PI3Kalpha assessed as reduction in PIP3 formation after 30 mins by fluorescence polarization assay
Phosphatidylinositol 4,5-bisphosphate 3-kinase catalytic subunit alpha isoform, sequence (P42336 whole entry, canonical isoform): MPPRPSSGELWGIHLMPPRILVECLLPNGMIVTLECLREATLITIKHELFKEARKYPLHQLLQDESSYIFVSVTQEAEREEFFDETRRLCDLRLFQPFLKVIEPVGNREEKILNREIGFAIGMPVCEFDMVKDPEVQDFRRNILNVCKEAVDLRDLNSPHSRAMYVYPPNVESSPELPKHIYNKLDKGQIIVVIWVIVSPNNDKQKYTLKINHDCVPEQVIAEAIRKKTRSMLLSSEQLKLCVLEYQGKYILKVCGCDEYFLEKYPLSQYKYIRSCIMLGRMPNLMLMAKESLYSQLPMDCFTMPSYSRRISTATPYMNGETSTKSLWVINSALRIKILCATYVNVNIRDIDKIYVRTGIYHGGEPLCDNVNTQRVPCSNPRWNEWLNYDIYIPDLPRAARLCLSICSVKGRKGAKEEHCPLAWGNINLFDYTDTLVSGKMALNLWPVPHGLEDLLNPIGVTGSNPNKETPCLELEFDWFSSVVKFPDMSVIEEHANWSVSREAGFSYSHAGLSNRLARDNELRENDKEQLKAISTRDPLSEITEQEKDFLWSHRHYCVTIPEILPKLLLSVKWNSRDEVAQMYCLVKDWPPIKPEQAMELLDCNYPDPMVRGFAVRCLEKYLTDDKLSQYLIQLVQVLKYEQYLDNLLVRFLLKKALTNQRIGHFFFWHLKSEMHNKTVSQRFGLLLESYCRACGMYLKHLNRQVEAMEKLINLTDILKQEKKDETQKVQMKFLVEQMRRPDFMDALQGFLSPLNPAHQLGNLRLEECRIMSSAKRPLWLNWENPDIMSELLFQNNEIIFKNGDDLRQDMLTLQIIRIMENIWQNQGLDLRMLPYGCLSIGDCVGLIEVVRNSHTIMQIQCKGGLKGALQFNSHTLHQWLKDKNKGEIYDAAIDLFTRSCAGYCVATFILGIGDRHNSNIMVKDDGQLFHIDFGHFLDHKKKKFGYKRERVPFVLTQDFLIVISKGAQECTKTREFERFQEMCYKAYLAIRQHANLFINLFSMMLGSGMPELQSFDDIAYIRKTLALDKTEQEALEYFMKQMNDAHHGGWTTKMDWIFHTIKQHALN

PC-3 = experiment: Antiproliferative activity against human PC3 cells incubated for 3 days; format: functional, cell-based; conditions: PC-3, 72 h

## Cc1c(CN2CCN(C(=O)[C@H](C)O)CC2)sc2c(N3CCOCC3)nc(-c3cnc(N)nc3)nc12 [APITOLISIB]
[1]
  Kp at 1 h: < 0.1
[2]
  clearance: 3 mL/min/kg
In vitro
  CLhep predicted: 3 mL/min/kg

## CC1(C)COC1c1cc2nc(-c3cnc(N)nc3)nc(N3CCOCC3)c2s1 (stereo unspecified)
[3]
  Ki: 21 nM
[4]
  CL/F: 52 mL/min/kg
[5]
  half-life: 3.3 h
[6]
  bioavailability: 46%
[7]
  fraction unbound: 0.087
[8]
  Kp at 1 h: 0.9
[9]
  Kp at 6 h: 1.2
Mouse Bcrp1
  efflux ratio at 2 h, 5 µM: 1.2

## COC1(c2sc3c(N4CCOCC4)nc(-c4cnc(N)nc4)nc3c2C)COC1
[10]
  concentration at 1 h: 2200 nM
[11]
  concentration at 1 h: 3600 nM
[12]
  inhibition: 77%
U-87MG ATCC
  TGI: Dose-dependent effect
[13]
  concentration at 6 h: 2310 nM
[14]
  concentration at 1 h: 3640 nM
[4]
  CL/F: 32 mL/min/kg
[5]
  half-life: 17 h
[6]
  bioavailability: 75%
[7]
  fraction unbound: 0.15
[15]
  Kp at 1 h: 1
[16]
  Kp at 6 h: 1
[17]
  EC50: 240 nM
[18]
  EC50: 230 nM
[19]
  EC50: 140 nM
M059J
  EC50: 330 nM
SF-539
  EC50: 250 nM
[20]
  EC50: 250 nM
SF-268
  EC50: 570 nM
Mus musculus [21]
  inhibition in vivo at 50 mg/kg: 62%
Mus musculus [22]
  inhibition in vivo at 50 mg/kg: 31%
[23]
  MTD at 576 h: 40 mg/kg
Mus musculus [24]
  Activity: Non-toxic
[25]
  Activity: <15%
Mus musculus [26]
  Activity: > 15%
Mus musculus [27]
  inhibition: Active
Mus musculus [28]
  inhibition: Active
Mus musculus [29]
  inhibition: Active
Mus musculus [30]
  inhibition: Active
Mus musculus [31]
  inhibition: Active
Mus musculus [32]
  inhibition: Active

## Cc1c(C(C)(C)O)sc2c(N3CCOCC3)nc(-c3cnc(N)nc3)nc12
Mouse Bcrp1
  efflux ratio at 2 h, 5 µM: 5.4

## CC(=O)N1CC(c2cc3nc(-c4cnc(N)nc4)nc(N4CCOCC4)c3s2)C1
Mouse Bcrp1
  efflux ratio at 2 h, 5 µM: 43

## CC1(C)OCCc2c1sc1c(N3CCOCC3)nc(-c3cnc(N)nc3)nc21
[33]
  fraction unbound: 0.006
[34]
  fraction unbound: 0.003
[3]
  Ki: 13 nM
[4]
  CL/F: 16 mL/min/kg
[5]
  half-life: 2.9 h
[6]
  bioavailability: 93%
[7]
  fraction unbound: 0.006
[35]
  Kp at 1 h: 1.4
[36]
  Kp at 6 h: 1.6
Mouse Bcrp1
  efflux ratio at 2 h, 5 µM: 2.3

## COC(C)(C)c1cc2nc(-c3cnc(N)nc3)nc(N3CCOCC3)c2s1
U-87MG ATCC
  TGI: Dose-dependent effect
[37]
  concentration at 6 h: 350 nM
[38]
  concentration at 1 h: 2140 nM
[4]
  CL/F: 20 mL/min/kg
[5]
  half-life: 20 h
[6]
  bioavailability: 25%
[7]
  fraction unbound: 0.102
[8]
  Kp at 1 h: 1
[9]
  Kp at 6 h: 0.9
[17]
  EC50: 380 nM
[18]
  EC50: 270 nM
[19]
  EC50: 400 nM
M059J
  EC50: 590 nM
SF-539
  EC50: 340 nM
[20]
  EC50: 290 nM
SF-268
  EC50: 1000 nM
Mus musculus [39]
  inhibition in vivo at 25 mg/kg: 39%
[23]
  MTD at 576 h: 14 mg/kg
Mus musculus [40]
  Activity: Non-toxic
Mus musculus [41]
  Activity: < 15%
Mus musculus [42]
  Activity: Toxic
Mus musculus [27]
  inhibition: Active
Mus musculus [28]
  inhibition: Active
Mus musculus [29]
  inhibition: Active
Mus musculus [30]
  inhibition: Active
Mus musculus [31]
  inhibition: Active
Mus musculus [32]
  inhibition: Active

## Cc1csc2c(N3CCOCC3)nc(-c3cnc(N)nc3)nc12
[43]
  IC50: 9 nM
PC-3
  EC50: 364 nM
[2]
  clearance: 238 mL/min/kg
In vitro
  CLhep predicted: 11 mL/min/kg
Mouse Bcrp1
  efflux ratio at 2 h, 5 µM: 1
